Patent US20250302839A1 (D&D Biopharmaceuticals, Inc., priority 2024, published 2025)

Tests used:
[1] = test system: human donor cornea; experiment: Penetration of riboflavin into human donor cornea, evaluated by fluorescence microscopy; type: in vitro ADME
[2] = test system: human donor cornea; experiment: Pre- and post-treatment evaluation of corneal integrity (epithelium, stroma, endothelium; specular microscopy); settings: 10 mg/ml glutaric anhydride in 0.3M sodium phosphate buffer (pH 8.5), 60 seconds
Experimental: The agent used in this example was glutaric anhydride (GA). Paired human donor corneas were evaluated prior to treatment and immediately after treatment for intact epithelium, stroma, and endothelium. Riboflavin fluorescence for the GA treatment and the non-GA treatment control were compared. The test human cornea sample was labeled 21-095656 OD, and the control human cornea sample was labeled 21-095656 OS.
One pair human corneas were recovered by in situ removal by a certified eyebank technician and placed in LIFE4° C. and stored in Bausch & Lomb 20 ml viewing chambers, and stored at 2-8° C. Corneas were shipped on wet ice overnight to the treatment facility. Upon arrival, the corneas were warmed for 2±2 hours at 35° C. and evaluated for corneal integrity. […] At the time of the study, corneas were warmed for 2±2 hours at 35° C., and evaluated for corneal integrity.
The control and treated cornea samples were placed in a petri dish with the epithelial side up in a laminar flow hood with enough Life4° C. corneal preservation medium to fill the endothelial side of the human cornea with medium. […] Each sample was analyzed before treatment (FIGS. 1A-1C).
A single examiner performed all measurements. Corneal endothelium was evaluated utilizing a Konan Eyebank KeratoAnalyzer. […] Number of cells analyzed. • 8. […]

| Compound | time until riboflavin fluorescence was exhibited ([1]; test cornea 21-095656 OD, after 10 mg/ml buffered glutaric anhydride solution for 60 seconds, riboflavin 1.46 mg/ml in PBS, 2 x 0.5 mL, intact epithelium) | disruption of corneal cell junctures permitting riboflavin diffusion ([1]; 10 mg/ml glutaric anhydride in 0.3M sodium phosphate buffer (pH 8.5), 1.0 ml for 60 seconds, continuous drops) | effect on corneal epithelium, stroma and endothelium post-treatment [2] |
| --- | --- | --- | --- |
| Cc1cc2nc3c(=O)[nH]c(=O)nc-3n(C[C@H](O)[C@H](O)[C@H](O)CO)c2cc1C [riboflavin, reference compound] | ≤ 2 min |  |  |
| O=C1CCCC(=O)O1 [glutaric anhydride] |  | disrupt cell junctures to permit diffusion of riboflavin through the epithelium and deep into the corneal stroma | did not adversely affect the corneal epithelium, stroma or endothelium |
